Measurements: patent US8852601B2, “Method of stimulating growth and resistance to diseases of aquatic organisms” (Centro de Ingenieria Genetica y Biotecnologia, priority 2002, dated 2014)
Marks after values point to notes of the source that are not given here. Non-standard residues stand in square brackets, D forms with d. No end group written: not given here.

Legend:
juvenile tilapia [1] = experiment: Growth promoting activity in juvenile tilapia, intraperitoneal injection; type: in vivo, Oreochromis aureus; details: intraperitoneal 0.1 μg/gbw twice a week, three weeks; P<0.05
Procedure: Juvenile hybrid tilapia (Oreochromis aureus) supplied by the Aquadique Aquaculture Station (Havana, Cuba) were acclimated in a 500 litters tank with re-circulating freshwater at 25° C. with constant photoperiod (14 hours light and 10 hours darkness) and fed with commercially prepared pellets (CENPALAB, Havana, Cuba). Daily rations equivalent to 5% of body weight were administered twice a day until they were used in the experiments.
GHRP-6 (BACHEM, Switzerland) was diluted in PBS and injected twice a week during three weeks at 0.1 μg per gram of fish body weight (gbw). The peptide was administered to a group of eight male tilapia with average body weight of 61±14.3 g and seven male tilapia with average body weight of 61.41±29.67 g were injected with PBS as a control group.
(§1) Body weight in grams was measured weekly. In all the experiments the animals were labeled with microchips (Stoelting Co. Wood Dale, U.S.A.).

tilapia [2] = experiment: Weigh of tilapia treated with GHRP-6 by immersion; type: in vivo, Oreochromis aureus; details: for Mean weigh ± DS: once a week for 45 days
Procedure: (§2) Tilapias (Oreochromis aureus) of 1.5 g of mean weigh were treated by immersion with two different doses of GHRP-6 (10 μg/100 ml and 100 μg/100 ml). A similar control group was treated with physiological solution.
(§3) In the experiment was measured the weigh (Table 1), biochemical blood parameters (Table 2), number of parasite in gill (Trichodinicos (Table 3) y Helmintos mongeneos (Table 4)) and humidity and protein concentration in muscle
(§4) Fifteen animals per group (3×) with mean weigh of 1 g were selected for the assay. In 9 tank of 40 liters were developed the experiment. One a week application was done for 45 days.
(§5) • Group I 10 μg/100 ml (Treatment 1) • Group II 100 μg/100 ml (Treatment 2) • Group III Control (Physiological solution)

Helmintos monogeneos = experiment: Invasion intensity and extension of Helmintos monogeneos in the gill of tilapia treated by immersion; type: in vivo; details: for I: Invasion intensity: in the gill per fish
Procedure: as §2, §3, §4, §5

juvenile tilapia [3] = experiment: Growth promoting activity in juvenile tilapia, oral intubation (non encapsulated and encapsulated peptide); type: in vivo, Oreochromis aureus
Procedure: as §1
GHRP-6 peptide was diluted in phosphate buffered saline (PBS) and administered through a plastic tube to the pharyngeal cavity to a group of seven male tilapia with average body weight 87.22±14.1 g. PBS was delivered to the control group (n=7, all male tilapia) with average weight 89.22±7.66 g. The treatment was done twice a week during three weeks at 0.1 μg/gbw. Body weight in grams was measured weekly. (FIG. 3)
For the encapsulation of peptide the capsules were obtained as previously reported by Knorr et al., 1988; using chitosan and alginic acid encapsulated peptide. The hexapeptide GHRP-6 was administered through a plastic tube to the pharyngeal cavity to seven male tilapia with average body weight 89.09±8.38 g. Polymer beads without peptide were administered to seven male tilapia with average weight 89.86±13.54 g as a control group. The treatment was performed twice a week at 0.14 μg/gbw. (FIG. 4)

tilapia [4] = experiment: Humidity and protein concentration in muscle of tilapia treated by immersion; type: in vivo, Oreochromis aureus
Procedure: as §2, §3, §4, §5

serum GH = experiment: Serum GH levels in tilapia injected with GHRP-6 (ELISA); type: in vivo; details: 15 min after intraperitoneal injection, 0.1 μg/gbw
Procedure: (§6) Fifteen tilapias with average weight 71±28 g were used for the experiment. The GHRP-6 was injected with hexapeptide at 0.1 μg/gbw. The liver and blood samples were drawn before the treatment and 15 min, 30 min, 1 h and 6 h after the peptide injection (three animals per group). The serum and liver sample were collected and stored at −70° C. until used for total RNA isolation and Northern blot analysis. A serum sample was also taken before the treatment in all animals.
Serum GH levels were determined by ELISA using two monoclonal antibodies against tilapia GH (Muñoz et al, in preparation).

tilapia IGF mRNA = experiment: Hepatic IGF mRNA levels in tilapia injected with GHRP-6 (Northern blot); type: in vivo; details: 0.1 μg/gbw
Procedure: as §6
Northern blot analysis was used to measure the relative IGF mRNA levels in tilapia injected with the peptide. Total RNA was purified from liver samples as described by Chomczynski and Sacchi (Chomczynski P, Sacchi N. Single step method of RNA isolation by acid guanidium thiocyanate-phenol-chloroform extraction. Anal Biochem 1987; 162:156-59). Twenty μg of RNA were fractionated on 1% formaldehyde agarose gels and transferred to nylon membranes (Hybond N, Amersham UK) and hybridized with a tilapia IGF-I cDNA probe and subsequently rehybridized with a human gliceraldehyde 3 phosphate dehydrogenase cDNA (GAPDH, kindly given by Dr. Bryan Williams, Cleveland Foundation, OH, USA) to normalize the signals. Hybridization signals were quantified by digital image processing of scanned gels with a Hewlett Packard Scanjet Plus scanner. Images were processed with the Bandleader computer program. […]

[5] = test system: larvae shrimp Litopeneaus schmitti; experiment: Shrimp larvae treated by immersion in production conditions; type: in vivo, Litopenaeus schmitti; details: production condition, vs non-treated group
Source text: FIG. 8. Growth rate of larvae shrimp Litopeneaus schmitti in production conditions treated with GHRP-6 by immersion. The experiment was follow by six week. ***t-test p<0.001. Bars indicate standard error
In production condition the survival rate of the larvae was increased in 20% in the group treated with the GHRP-6 in comparison with the non-treated group. […] On the other hand the uniformity of the animals was higher in the group treated with the hexapeptide and the variation coefficient was lower in weigh and size (FIG. 8).

[6] = test system: shrimp Litopenaeus schmitti larvae; experiment: Growth promoting activity in shrimp larvae treated by immersion; type: in vivo
Procedure: Three different doses of GHRP-6 were applied by immersion to groups or shrimp larvae. The application was made each three days. Four applications were made for each group, including one control group receiving bovine serum albumin (BSA). The treatment was made per 1 hour to a concentration of GHRP-6 per liter of seawater as follow: • Group 1: 0.001 mg/L • Group 2: 0.01 mg/L • Group 3: 0.1 mg/L • Group 4: 1 mg of BSA/L

protozoo Trichodina sp. = experiment: Invasion intensity and extension of Trichodina sp. in tilapia treated by immersion; type: in vivo
Procedure: as §2, §3, §4, §5

[7] = Grupo I, immersion 10 μg/100 mL
[8] = Grupo II, immersion 100 μg/100 mL
[9] = comparison II-III (100 μg/100 mL vs saline), significant
[10] = comparison III-I (saline vs 10 μg/100 mL), significant
[11] = comparison III-I (saline vs 10 μg/100 mL)
[12] = 0.1 mg/L immersion, statistically significant
[13] = 0.1 mg/L, four 1 hour immersions, each three days, vs BSA control

In the case of “His-D-Trp-Ala-Trp-D-Phe-Lys-NH2 (H[dW]AW[dF]K-NH2) [GHRP-6, known GH releasing hexapeptide (GH secretagogue), bought from BACHEM]”, the “growth (increase in growth rate) vs control” value (juvenile tilapia [1]) is reported as “significantly stimulated growth”, the “Mean weigh ± DS” value (tilapia [2]; [7]) is reported as 4.56 ± 1.07 g and the “Mean weigh ± DS” value (tilapia [2]; [8]) is reported as 4.54 ± 1.38 g. The “Statistically difference, mean weigh” value (tilapia [2]; comparison I-II (10 vs 100 μg/100 mL)) was 0.01454, the “Statistically difference, mean weigh” value (tilapia [2]; [9]) was 1.072* and the “Statistically difference, mean weigh” value (tilapia [2]; [10]) was 1.086*. The “E: Invasion extension” value (Helmintos monogeneos; [7]) was 34.7%, the “I: Invasion intensity” value (Helmintos monogeneos; [7]) was 0.39 and the “E: Invasion extension” value (Helmintos monogeneos; [8]) was 50%. For the same substance, the “I: Invasion intensity” value (Helmintos monogeneos; [8]) was 0.66, the “Statistically difference, Helmintos monogeneos invasion” value (Helmintos monogeneos; comparison I-II) was “(0.304)” and the “Statistically difference, Helmintos monogeneos invasion” value (Helmintos monogeneos; comparison II-III (100 μg/100 mL vs saline)) was “(0.521)”. The “Statistically difference, Helmintos monogeneos invasion” value (Helmintos monogeneos; [10]) was “(0.826)*”, the “body weight gain, encapsulated vs non encapsulated orally intubated treatment” value (juvenile tilapia [3]; comparison between both oral treatments, P<0.05) was “higher body weight gain” and the “body weight to the end of the treatment vs control” value (juvenile tilapia [3]; orally intubated encapsulated peptide) was “statistically differences in the body weight”. For the same substance, the “Mean humidity ± SD in muscle” value (tilapia [4]; [7]) was 82.96 ± 3.63%, the “Mean humidity ± SD in muscle” value (tilapia [4]; [8]) was 83.5 ± 3.31% and the “Statistically difference, humidity in muscle” value (tilapia [4]; comparison I-II) was “(0.791)”. The “Statistically difference, protein concentration” value (tilapia [4]; comparison I-II, significant) was “(1.160)*”, the “Statistically difference, humidity in muscle” value (tilapia [4]; [9]) was “(2.666)*” and the “Statistically difference, protein concentration” value (tilapia [4]; [9]) was “(1.38)*”. For the same substance, the “Statistically difference, humidity in muscle” value (tilapia [4]; [11]) was “(3.458)”, the “Statistically difference, protein concentration” value (tilapia [4]; [10]) was “(2.64)*” and the “serum GH levels” value (serum GH) was “increased”. For the same substance, the “level of hepatic IGF mRNA” value (tilapia IGF mRNA; 30 min after intraperitoneal injection) was “increased significantly”, the “level of hepatic IGF mRNA” value (tilapia IGF mRNA; six hours after intraperitoneal injection) was “backing to the normal value” and the increase of size [5] was 37%. For the same substance, the “increase of survival rate of the larvae” value [5] was 20%, the increase of weigh [5] was 115% and the “uniformity of the animals” value [5] was “higher”. The “variation coefficient in weigh and size” value [5] was “lower”, the “number of bone rostral” value [6, 12] was “increase” and the “number of gill ramifications” value [6, 12] was “increase”. For the same substance, the “increase of mean size” value [6, 13] was 26%, the “increase of mean weigh” value [6, 13] was 153% and the “relation Protein/DNA in muscle” value ([6]; all treated animals vs control) was “increased”. For the same substance, the “relation RNA/DNA in muscle” value ([6]; all treated animals vs control) was “increased”, the “water content in the muscle” value ([6]; all treated animals vs control) was “lower water content in the muscle” and the “E: Invasion extension” value (protozoo Trichodina sp.; [7]) was 100%. The “I: Invasion intensity” value (protozoo Trichodina sp.; [7]) was 7.73, the “E: Invasion extension” value (protozoo Trichodina sp.; [8]) was 84.6% and the “I: Invasion intensity” value (protozoo Trichodina sp.; [8]) was 2.80. The “Statistically difference, Trichodina sp. invasion” value (protozoo Trichodina sp.; comparison I-II) was “(4.42)”, the “Statistically difference, Trichodina sp. invasion” value (protozoo Trichodina sp.; [9]) was “(5.84)*” and the “Statistically difference, Trichodina sp. invasion” value (protozoo Trichodina sp.; [11]) was “(1.42)”.
